Measured values taken from patent publication US20260085062A1, “NOVEL COMPOUNDS AS CK2 INHIBITORS” (Cambridge Enterprise Limited, priority 2022, published 2026).

Experiments:
[1] = molecular target: T1, intracellular CK2α (Homo sapiens, UniProt P19784); experiment: Cell-based NanoBRET assay for inhibitor binding to intracellular CK2α; conditions: HCT116 cells transiently transfected with CSNK2A2-NanoLuc fusion vector; Tracer K-5; 2 h; read-out: Assay 3: NanoBRET ™ assay for binding to intracellular CK2α
T1 construct: host or cells: HCT116 (ATCC CCL-247)
Procedure: This assay used the NanoBRET™ System (Promega), an energy transfer technique designed to measure molecular proximity in living cells. The assay measured the apparent affinity of test compounds by competitive displacement of a NanoBRET™ tracer reversibly bound to a NanoLucR luciferase CK2α fusion protein in cells. A fixed concentration of tracer was added to cells expressing the desired NanoLucR-CK2α fusion protein to generate a BRET reporter complex. […] Donor emission wavelength (450 nm) and acceptor emission wavelength (610 nm or 630 nm) were measured on the Envision (Perkin-Elmer) and BRET ratio calculated for data analysis: BRET Ratio=(Acceptorsample/Donorsample)×1,000. • 7.

[2] = molecular target: T2, CLK2 (Homo sapiens, UniProt P49760); experiment: Biochemical assay for inhibitors of CLK2 kinase activity (ADP-Glo); conditions: 20 nM CLK2, 50 μM peptide substrate, 100 μM ATP, read-out: Assay 2: CLK2 Enzyme IC50
T2 construct: purchased Carna Biosciences 04-127
Procedure: The inhibitory activity of putative kinase inhibitors and the potency of selected compounds were determined using ADP-GloTM assay. The kinase reaction was performed in the presence of excess peptide substrate and ATP at a concentration equivalent to Km. Upon termination of the kinase reaction, remaining ATP was depleted leaving only ADP reaction product, which was converted back to ATP with a coupled luciferin/luciferase reaction. The luminescent output from the coupled reaction was quantified and correlated with the kinase activity. […] The assay was conducted as follows: • 1. […] After 120 minutes, the reaction was stopped by addition of 5 pl ADP-Glo reagent (Promega V9102) and the plate incubated at RT for a further 60 minutes. • 5. 10 μL of Kinase Detection reagent (Promega V9102) was added to assay plate and incubated for a further 30 minutes prior to reading luminescence on an Envision (Perkin-Elmer). Data was analysed to calculate compound IC50and Ki as follows: • 1. […] Morrison Ki was determined using Morrison Ki equation (XL-fit).

[3] = molecular target: T3, CK2α (Homo sapiens, UniProt P68400); experiment: Biochemical assay for inhibitors of CK2α kinase activity (ADP-Glo); conditions: 0.2 nM CK2α, 50 μM peptide substrate, 15 μM ATP, read-out: Assay 1: CK2α Enzyme IC50
T3 construct: CK2α (residues 2-329) was produced in Escherichia coli BL21 (DE3) for kinase activity screening; His6 (N, cleaved yes); made in house; host or cells: Escherichia coli BL21 (DE3)
T3 sequence (P68400 2-329): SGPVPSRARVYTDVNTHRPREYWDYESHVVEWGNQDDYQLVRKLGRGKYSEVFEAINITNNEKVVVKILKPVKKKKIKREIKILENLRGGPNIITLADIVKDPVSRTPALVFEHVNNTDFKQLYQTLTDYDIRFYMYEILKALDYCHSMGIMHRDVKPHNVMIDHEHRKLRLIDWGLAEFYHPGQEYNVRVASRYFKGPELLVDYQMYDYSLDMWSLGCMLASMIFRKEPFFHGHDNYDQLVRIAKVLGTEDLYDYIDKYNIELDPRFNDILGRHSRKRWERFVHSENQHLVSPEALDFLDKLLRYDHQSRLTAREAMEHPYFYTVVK
Procedure: The inhibitory activity of putative kinase inhibitors and the potency of selected compounds were determined using ADP-Glo™ assay. The kinase reaction was performed in the presence of excess peptide substrate and ATP at a concentration equivalent to Km. Upon termination of the kinase reaction, remaining ATP was depleted leaving only ADP reaction product, which was converted back to ATP with a coupled luciferin/luciferase reaction. The luminescent output from the coupled reaction was quantified and correlated with the kinase activity. […] Single colonies of the cells were grown in 6×1 L of 2×TY with 100 μg/mL ampicillin at 37° C. […] The cells were incubated overnight at 25° C. then harvested by centrifugation at 4,000 g for 20 minutes. The cell pellets were suspended in 20 mM Tris, 500 mM NaCl, pH 8.0 and lysed using a high pressure homogenizer. Protease inhibitor cocktail tablets (one tablet per 50 mL extract; Roche Diagnostics) and DNase I were then added. The crude cell extract was then centrifuged at 10,000 g for 45 minutes, the supernatant was filtered with a 0.22 μm filter. The soluble supernatant was applied on a Ni Sepharose Fast Flow6 column at pH 8.0, washed and eluted in 20 mM Tris pH 8.0, 500 mM NaCl, 200 mM imidazole. […] The cleaved protein was further purified on a Sepharose Q HP anion-exchange column and the main peak fraction from this column was further purified by gel filtration on a Superdex 75 16/60 HiPrep column equilibrated with Tris 20 mM, pH 8.0, 500 mM NaCl. Pure protein was concentrated to 15 mg/mL and flash frozen in liquid nitrogen. […] The assay was conducted as follows: • 1. […] After 120 minutes, the reaction was stopped by addition of 5 pl ADP-Glo reagent (Promega V9102) and the plate incubated at RT for a further 60 minutes. • 5. 10 μL of Kinase Detection reagent (Promega V9102) was added to assay plate and incubated for a further 30 minutes prior to reading luminescence on an Envision (Perkin-Elmer). Data was analysed to calculate compound IC50and Ki as follows: • 1. […] Percent activity was calculated for each well using: (Test well reading−MEAN100%inhibition control wells)/(MEAN0% inhibition control wells−MEAN100%inhibition control wells). • 5. Morrison Ki was determined using Morrison Ki equation (XL-fit).

T1 sequence (P19784 whole entry, the tested form may be a part): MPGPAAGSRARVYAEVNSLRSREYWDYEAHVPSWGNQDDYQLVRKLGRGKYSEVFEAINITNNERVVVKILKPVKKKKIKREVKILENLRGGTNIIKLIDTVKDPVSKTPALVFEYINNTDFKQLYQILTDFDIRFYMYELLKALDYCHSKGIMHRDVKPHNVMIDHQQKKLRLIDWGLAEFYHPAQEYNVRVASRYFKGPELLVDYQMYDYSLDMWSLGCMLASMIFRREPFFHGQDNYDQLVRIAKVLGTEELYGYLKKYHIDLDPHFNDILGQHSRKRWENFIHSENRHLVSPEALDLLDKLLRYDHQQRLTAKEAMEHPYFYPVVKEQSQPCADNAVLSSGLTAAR
T2 sequence (P49760 whole entry): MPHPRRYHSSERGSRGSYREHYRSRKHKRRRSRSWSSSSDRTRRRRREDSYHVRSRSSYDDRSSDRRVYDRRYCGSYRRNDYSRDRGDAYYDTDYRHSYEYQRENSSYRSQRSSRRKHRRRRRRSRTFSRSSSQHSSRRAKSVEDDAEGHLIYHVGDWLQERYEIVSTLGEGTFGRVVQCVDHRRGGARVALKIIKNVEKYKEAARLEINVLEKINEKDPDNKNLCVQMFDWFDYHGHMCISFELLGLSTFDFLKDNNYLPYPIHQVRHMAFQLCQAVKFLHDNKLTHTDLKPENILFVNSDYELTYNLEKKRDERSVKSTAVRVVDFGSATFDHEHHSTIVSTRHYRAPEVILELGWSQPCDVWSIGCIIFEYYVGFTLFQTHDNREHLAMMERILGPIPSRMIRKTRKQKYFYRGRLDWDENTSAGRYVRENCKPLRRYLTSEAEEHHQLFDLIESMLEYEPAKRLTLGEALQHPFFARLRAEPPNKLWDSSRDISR

| SMILES | IC50 [1] | IC50 [2] | IC50 [3] |
| --- | --- | --- | --- |
| O=C(CCNCc1ccc(-c2ccccc2)c(Cl)c1)NCCCNc1cc(C2CCOCC2)cc2[nH]ncc12 [Example 90, 3-(((2-chloro-[1,1′-biphenyl]-4-yl)methyl)amino)-N-(3-((6-(tetrahydro-2H-pyran-4-yl)-1H-indazol-4-yl)amino)propyl)propanamide] | 10600 nM | 8780 nM | 212 nM |
| FC(F)(F)c1ccc2[nH]c(CNCCCCOCCNc3cc(-c4cnoc4)cc4[nH]nnc34)cc2c1 [Example 143, 6-(isoxazol-4-yl)-N-(2-(4-(((5-(trifluoromethyl)-1H-indol-2-yl)methyl)amino)butoxy)ethyl)-1H-benzo[d][1,2,3]triazol-4-amine] | 564 nM | 625 nM | 7.01 nM |
| OCc1cc(F)cc(CNCCCCOC2CN(c3cc(-c4cnoc4)cc4[nH]ncc34)C2)c1 [Example 138, (3-fluoro-5-(((4-((1-(6-(isoxazol-4-yl)-1H-indazol-4-yl)azetidin-3-yl)oxy)butyl)amino)methyl)phenyl)methanol] | 5920 nM | 115 nM | 33.7 nM |
| Cc1nc(-c2cc(NCCCNC(=O)CCNCc3ccc(-c4ccccc4)c(Cl)c3)c3cn[nH]c3c2)c[nH]1 [Example 9, 3-(((2-chloro-[1,1′-biphenyl]-4-yl)methyl)amino)-N-(3-((6-(2-methyl-1H-imidazol-4-yl)-1H-indazol-4-yl)amino)propyl)propanamide] | 8550 nM | 568 nM | 7.69 nM |
| c1cc(-c2cc(NCCOCCCCNCc3cc4cc(OC5CCC5)ccc4[nH]3)c3cn[nH]c3c2)cnn1 [Example 57, N-(2-(4-(((5-cyclobutoxy-1H-indol-2-yl)methyl)amino)butoxy)ethyl)-6-(pyridazin-4-yl)-1H-indazol-4-amine] | 69.8 nM | 781 nM | 0.6 nM |
| OCc1cc(Cl)cc(CNCCCCOC2CN(c3cc(-n4cnnc4)cc4[nH]ncc34)C2)c1 [Example 130, (3-(((4-((1-(6-(4H-1,2,4-triazol-4-yl)-1H-indazol-4-yl)azetidin-3-yl)oxy)butyl)amino)methyl)-5-chlorophenyl)methanol] | 15400 nM | 326 nM | 106 nM |
| FC(F)(F)c1ccc2[nH]c(CNCCCCOCCNc3cccc4[nH]ncc34)cc2c1 [Example 94] | 29300 nM | 5790 nM | 203 nM |

The next lines start with the values.

| IC50 [1] | IC50 [2] | IC50 [3] | SMILES |
| --- | --- | --- | --- |
| 753 nM | 526 nM | 0.32 nM | O=C(CCNCc1ccc(OC(F)(F)F)c(Cl)c1)NCCCNc1cc(-c2cc[nH]c(=O)c2)cc2[nH]ncc12 [Example 31, 3-((3-chloro-4-(trifluoromethoxy)benzyl)amino)-N-(3-((6-(2-oxo-1,2-dihydropyridin-4-yl)-1H-indazol-4-yl)amino)propyl)propanamide] |
| 240 nM | 306 nM | 2.15 nM | O=C(CCNCc1ccc(OC(F)(F)F)c(Cl)c1)NCCCNc1cc(-c2ccncc2)cc2[nH]ncc12 [Example 5, 3-((3-Chloro-4-(trifluoromethoxy)benzyl)amino)-N-(3-((6-(pyridin-4-yl)-1H-indazol-4-yl)amino)propyl)propanamide] |
| 106 nM | 787 nM | 0.76 nM | O=C(CCNCc1ccc(OC(F)(F)F)c(Cl)c1)NCCCNc1cc(-c2ccncc2)nc2[nH]ncc12 [Example 185, 3-((3-chloro-4-(trifluoromethoxy)benzyl)amino)-N-(3-((6-(pyridin-4-yl)-1H-pyrazolo[3,4-b]pyridin-4-yl)amino)propyl)propanamide] |
| 738 nM | 614 nM | 11 nM | O=C(CCNCc1ccc(OC(F)(F)F)c(Cl)c1)NCCCNc1cc(-c2ccncc2)c(Cl)c2[nH]ncc12 [Example 158, 3-((3-chloro-4-(trifluoromethoxy)benzyl)amino)-N-(3-((7-chloro-6-(pyridin-4-yl)-1H-indazol-4-yl)amino)propyl)propanamide] |
| 2520 nM | 2150 nM | 50.5 nM | N#CCc1cc(CNCCCCOC2CN(c3cc(-c4ccnnc4)cc4[nH]ncc34)C2)cc(C(F)(F)F)c1 [Example 114, 2-(3-(((4-((1-(6-(pyridazin-4-yl)-1H-indazol-4-yl)azetidin-3-yl)oxy)butyl)amino)methyl)-5-(trifluoromethyl)phenyl)acetonitrile] |
| 2360 nM | 498 nM | 10.9 nM | FC(F)(F)c1ccc2[nH]c(CNCCCCOC3CN(c4cc(-c5cnoc5)cc5[nH]ncc45)C3)cc2c1 [Example 139, 4-((1-(6-(isoxazol-4-yl)-1H-indazol-4-yl)azetidin-3-yl)oxy)-N-((5-(trifluoromethyl)-1H-indol-2-yl)methyl)butan-1-amine] |
| 177 nM | 17 nM | 0.94 nM | Nc1cc(-c2cc(NCCCNC(=O)CCNCc3ccc(OC(F)(F)F)c(Cl)c3)c3cn[nH]c3c2)ccn1 [Example 184, N-(3-((6-(2-aminopyridin-4-yl)-1H-indazol-4-yl)amino)propyl)-3-((3-chloro-4-(trifluoromethoxy)benzyl)amino)propanamide] |
| 1730 nM | 186 nM | 25.4 nM | N#CCc1cc(CNCCCCOC2CN(c3cc(-c4cnoc4)cc4[nH]ncc34)C2)cc(C(F)(F)F)c1 [Example 145, 2-(3-(((4-((1-(6-(isoxazol-4-yl)-1H-indazol-4-yl)azetidin-3-yl)oxy)butyl)amino)methyl)-5-(trifluoromethyl)phenyl)acetonitrile] |
| 146 nM | 69.8 nM | 0.25 nM | N#Cc1n[nH]cc1-c1cc(NCCCNC(=O)CCNCc2ccc(-c3ccccc3)c(Cl)c2)c2cn[nH]c2c1 [Example 7, 3-(((2-chloro-[1,1′-biphenyl]-4-yl)methyl)amino)-N-(3-((6-(3-cyano-1H-pyrazol-4-yl)-1H-indazol-4-yl)amino)propyl)propanamide] |
| 21.4 nM | 227 nM | 0.41 nM | C[C@@H](CCCOCCNc1cc(-c2cnnc(O)c2)cc2[nH]ncc12)NCc1cc(Cc2cnco2)cc(OC(F)(F)F)c1 [Example 195, (S)-5-(4-((2-((4-((3-(oxazol-5-ylmethyl)-5-(trifluoromethoxy)benzyl)amino)pentyl)oxy)ethyl)amino)-1H-indazol-6-yl)pyridazin-3-ol] |
